System: cotton, variety D&PL 555
Test: % desiccation of cotton leaves, field trial
Type: in vivo
Method: The trial was performed on cotton, variety D&PL 555. The formulated test compounds were diluted to the appropriate concentrations with water to which a crop oil concentrate (1% to 2% v/v) or a non-ionic surfactant (0.25% v/v) was added. The application of the test composition as a cotton plant growth regulator was performed using pressurized, over-the-top spray equipment consisting of a research scale boom sprayer. Deposit of the test composition was primarily to the top of the cotton plants, minimizing spray deposition to lower branches, leaves and fruit. The finished spray volume was 10 gallons per acre, with sprayer nozzle design, orientation and nozzle pressures chosen to prevent spray drift. Applications were made at first sign of cotton boll opening and at 15%, 20% and 40% open bolls.
The experimental design used randomized plots with 1 to 4 treatment rates of test composition and from 1 to 10 replications depending on the test (sees tables below). The size of each experimental plot was about 15 m^2. Testing was performed in Texas, North Carolina, Mississippi and Georgia.
Percent desiccation, percent defoliation, percent terminal control and percent open bolls were evaluated at 7 and 14 days after application (DAA) of the test composition. Inspection of cotton plants for insect control of armyworm larvae was performed at 2 DAA and insect damage to bolls was performed at the time of harvest
Desiccation refers to leaves or portions of leaves dried to debris following tissue death. […] An evaluation of the condition of leaves in the untreated check plots were observed. Then the test plots were individually evaluated. The percent of all leaves completely or partially desiccated by the test application were recorded, based upon live leaves and leaf debris within the test plot relative to foliage present in the untreated plot.
The results, shown as the mean of the indicated number of replications, were compared with results observed in the same trials with an untreated control.

CCOC(=O)C(Cl)Cc1cc(-n2nc(C)n(C(F)F)c2=O)c(F)cc1Cl (centres unmarked) [carfentrazone-ethyl, ethyl 2-chloro-3-[2-chloro-5-(4-difluoromethyl-3-methyl-5-oxo-4,5-dihydro-[1,2,4]-triazol-1-yl)-4-fluorophenyl]propionate] was tested, and the “% Desiccation” value (15% open boll application, 0.004 lb ai/a, 14 DAA, 10 replicates) was 29%, the “% Desiccation” value (15% open boll application, 0.006 lb ai/a, 14 DAA, 10 replicates) was 33% and the “% Desiccation” value (15% open boll application, 0.008 lb ai/a, 14 DAA, 10 replicates) was 37%. For the same compound, the “% Desiccation” value (15% open boll application, 0.01 lb ai/a, 14 DAA, 10 replicates) was 38%, the “% Desiccation” value (20% open boll application, 0.002 lb ai/a, 7 DAA, 3 replicates) was 8% and the “% Desiccation” value (20% open boll application, 0.002 lb ai/a, 14 DAA, 2 replicates) was 13%. For the same compound, the “% Desiccation” value (20% open boll application, 0.004 lb ai/a, 7 DAA, 3 replicates) was 17%, the “% Desiccation” value (20% open boll application, 0.004 lb ai/a, 14 DAA, 2 replicates) was 23% and the “% Desiccation” value (20% open boll application, 0.006 lb ai/a, 7 DAA, 3 replicates) was 21%. For the same compound, the “% Desiccation” value (20% open boll application, 0.006 lb ai/a, 14 DAA, 2 replicates) was 22%, the “% Desiccation” value (20% open boll application, 0.008 lb ai/a, 7 DAA, 3 replicates) was 24% and the “% Desiccation” value (20% open boll application, 0.008 lb ai/a, 14 DAA, 2 replicates) was 22%. The “% Desiccation” value (40% open boll application, 0.004 lb ai/a, 7 DAA, 1 replicate) was 6%, the “% Desiccation” value (40% open boll application, 0.006 lb ai/a, 7 DAA, 1 replicate) was 5% and the “% Desiccation” value (40% open boll application, 0.008 lb ai/a, 7 DAA, 1 replicate) was 9%. The “% Desiccation” value (first open boll application, 0.002 lb ai/a, 7 DAA, 4 replicates) was 15%, the “% Desiccation” value (first open boll application, 0.002 lb ai/a, 14 DAA, 4 replicates) was 18% and the “% Desiccation” value (first open boll application, 0.004 lb ai/a, 7 DAA, 4 replicates) was 25%. For the same compound, the “% Desiccation” value (first open boll application, 0.004 lb ai/a, 14 DAA, 4 replicates) was 25%, the “% Desiccation” value (first open boll application, 0.006 lb ai/a, 7 DAA, 4 replicates) was 28% and the “% Desiccation” value (first open boll application, 0.006 lb ai/a, 14 DAA, 4 replicates) was 28%. For the same compound, the “% Desiccation” value (first open boll application, 0.008 lb ai/a, 7 DAA, 4 replicates) was 33% and the “% Desiccation” value (first open boll application, 0.008 lb ai/a, 14 DAA, 4 replicates) was 32%.
